# Test results as given in US20240415123A1, “METHODS AND COMPOSITIONS FOR ICAFOLIN HERBICIDE TOLERANCE” (Monsanto Technology LLC, priority 2023, published 2024).
# How the values were obtained:
# Type in all cases: in vivo
# [1] = tested on: transgenic soybean plants expressing CYP15; assay: Icafolin herbicide injury rating, greenhouse spray, CYP15 soybean
# From the text: The codon-optimized polynucleotide sequences were placed into plant transformation cassettes with each CYP coding sequence operably-linked to a constitutive expression element comprising the promoter, leader, and intron sequence of Arabidopsis thaliana Ubiquitin 3 (SEQ ID NO:14) and a Medicago truncatula photosystem II terminator (SEQ ID NO:15). Four plant transformation vectors were created, each comprising one of the CYP gene expression cassettes and an aadA selectable marker expression cassette, conferring resistance to the antibiotics spectinomycin and streptomycin. Soybean cultivar AG3555 seed-derived embryo explants were transformed with the vectors by Agrobacterium-mediated transformation using known methods in the art, and transformed plantlets were selected based on growth in the presence of spectinomycin. Plantlets comprising single copy events were grown in the greenhouse to produce R1 seeds. R1 plants were subsequently selected for homozygous CYP-positive plants, either by molecular analysis of young leaf tissue or by seed chipping prior to planting. These selected plants were then screened for tolerance to icafolin herbicide.
# Herbicide tolerance screens were performed by selecting R1 plants at roughly the V2-V3 developmental stage and applying icafolin herbicide with a track sprayer under standard greenhouse conditions. Two independent transgenic events per transgene were screened. The herbicide was formulated with 1% v/v methylated seed oil (MSO) and 2.5% v/v ammonium sulfate (AMS) and sprayed with a XR nozzle at 15 gallons per […] (GPA) to mimic field conditions. The icafolin used in this Example and in the experiments described in Examples 2-4 was a mixture of the methyl ester forms of the 2R, 4R and 2S, 4S isomers. The icafolin formulation was sprayed at two rates: 5 g active ingredient (ai)/hectare (ha) and 25 g ai/ha. The herbicide treated soybean plants were returned to the greenhouse following spray application and allowed to grow under standard conditions. Plants were rated for herbicide injury at approximately 14 and 21 days after treatment (DAT). Untreated transgenic plants and control (wild-type) plants were used for phenotypic comparison. The herbicide injury rating accounts for plant malformation, stunting, chlorosis, necrosis, and plant death relative to the untreated control plants. An injury rating of approximately 90% or above indicates nearly complete plant death. An injury rating of less than 30% indicates partial tolerance, and an injury rating of less than 20% indicates good tolerance. Injury ratings were collected and analyzed, and photographs of representative plants were taken.
# [2] = tested on: transgenic soybean plants expressing CYP28; assay: Icafolin herbicide injury rating, greenhouse spray, CYP28 soybean; settings: Table 8
# From the text: The codon-optimized genes were placed into plant transformation cassettes with each CYP coding sequence operably linked to a constitutive expression element comprising the promoter, leader, and intron of Arabidopsis thaliana Ubiquitin 3 (SEQ ID NO:14) and a Medicago truncatula photosystem II terminator (SEQ ID NO:15). Two plant transformation vectors were created, each comprising one of the CYP gene cassettes and an aadA selectable marker expression cassette, conferring resistance to the antibiotics spectinomycin and streptomycin. Soybean cultivar AG3555 seed-derived embryo explants were transformed with the vectors described above by Agrobacterium-mediated transformation using known methods in the art, and positive-transformed plantlets were selected based on growth in the presence of spectinomycin. Plantlets comprising single copy events were grown in the greenhouse to produce R1 seeds. R1 plants were subsequently selected for the homozygous CYP positive plants, either by molecular analysis of young leaf tissue or by seed chipping prior to planting. These selected plants were then screened for tolerance to the icafolin herbicide.
# Herbicide tolerance screening was performed by selecting R1 plants at roughly the V2-V3 developmental stage and applying the icafolin herbicide in a track sprayer under standard greenhouse conditions. Two independent transgenic events per transgene were selected for screening. The herbicide was formulated with 1% v/v methylated seed oil (MSO) and 2.5% v/v ammonium sulfate (AMS) and sprayed with a XR nozzle at 15 gallons per […] (GPA) to mimic field conditions. The icafolin formulation was sprayed at two rates: 5 g active ingredient (ai)/hectare (ha) and 25 g ai/ha. The treated soybean plants were returned to the greenhouse following spray application and allowed to grow under standard conditions. The plants were rated for herbicide injury at approximately 14 and 21 days after treatment (DAT). Untreated transgenic plants and control (wild-type) plants were used for phenotypic comparison. The herbicide injury rating accounts for plant malformation, stunting, chlorosis, necrosis, and plant death relative to the untreated control plants. An injury rating of approximately 90% or above indicates nearly complete plant death. An injury rating of less than 30% indicates partial tolerance and an injury rating of less than 20% indicates good tolerance. Injury ratings were collected and analyzed, and photographs of representative plants were taken.
# [3] = tested on: soybean event transformed with a non-herbicide tolerance construct (negative control); assay: Field trial icafolin injury rating, negative control soybean; settings: averaged across repetitions and field locations
# Procedure: Soy transgenic plants expressing CYP14 or CYP15 were assayed in small scale field trails across nine sites in the United States for tolerance to icafolin spray applications. The plants were grown in field plots and sprayed during the early vegetative stages when plants were roughly at the V3 stage. The icafolin formulation was sprayed at either a 5 g ai/ha or 25 g ai/ha application rate with 2 treatment replications per location. The plants were rated for herbicide injury at 7, 14, 21, and 28 days after treatment (DAT). A total of 12 events for CYP14 and 11 events for CYP15 were tested. An event transformed with a non-herbicide tolerance construct served as a negative control to provide a comparison for injury.
# [4] = CYP15 Event 618, 5 g ai/ha icafolin, Experiment 2
# [5] = CYP15 Event 618, 25 g ai/ha icafolin, Experiment 2
# [6] = CYP15 Event 670, 5 g ai/ha icafolin, Experiment 2
# [7] = CYP15 Event 670, 25 g ai/ha icafolin, Experiment 2
# [8] = CYP15 Event 784, 5 g ai/ha icafolin, Experiment 2
# [9] = CYP15 Event 784, 5 g ai/ha icafolin, Experiment 1
# [10] = CYP15 Event 784, 25 g ai/ha icafolin, Experiment 2
# [11] = CYP15 Event 784, 25 g ai/ha icafolin, Experiment 1
# [12] = CYP15 Event 794, 5 g ai/ha icafolin, Experiment 2
# [13] = CYP15 Event 794, 5 g ai/ha icafolin, Experiment 1
# [14] = CYP15 Event 794, 25 g ai/ha icafolin, Experiment 2
# [15] = CYP15 Event 794, 25 g ai/ha icafolin, Experiment 1
# [16] = CYP28 Event 44, 5 g ai/ha icafolin
# [17] = CYP28 Event 44, 25 g ai/ha icafolin
# [18] = CYP28 Event 90, 5 g ai/ha icafolin
# [19] = CYP28 Event 90, 25 g ai/ha icafolin
compound,measurement,setting,value
"C=C[C@]1(C(=O)N[C@H]2CO[C@@H](C(=O)OC)C2)CC(c2cc(F)cc(F)c2)=NO1 (relative stereo) [icafolin, methyl(2R*,4R*)-4-[[(5S)-3-(3,5-difluorophenyl)-5-vinyl-4H-isoxazole-5-carbonyl]amino]tetrahydrofuran-2-carboxylate]",Percent Injury 14 DAT,[1]; [4],23%
same,Percent injury 21 DAT,[1]; [4],12%
same,Percent Injury 14 DAT,[1]; [5],60%
same,Percent injury 21 DAT,[1]; [5],32%
same,Percent Injury 14 DAT,[1]; [6],10%
same,Percent injury 21 DAT,[1]; [6],15%
same,Percent Injury 14 DAT,[1]; [7],52%
same,Percent injury 21 DAT,[1]; [7],34%
same,Percent Injury 14 DAT,[1]; [8],8%
same,Percent Injury 15 DAT,[1]; [9],8%
same,Percent injury 21 DAT,[1]; [9],3%
same,Percent injury 21 DAT,[1]; [8],11%
same,Percent Injury 14 DAT,[1]; [10],78%
same,Percent Injury 15 DAT,[1]; [11],28%
same,Percent injury 21 DAT,[1]; [11],32%
same,Percent injury 21 DAT,[1]; [10],44%
same,Percent Injury 14 DAT,[1]; [12],12%
same,Percent Injury 15 DAT,[1]; [13],8%
same,Percent injury 21 DAT,[1]; [13],6%
same,Percent injury 21 DAT,[1]; [12],9%
same,Percent Injury 14 DAT,[1]; [14],78%
same,Percent Injury 15 DAT,[1]; [15],36%
same,Percent injury 21 DAT,[1]; [15],41%
same,Percent injury 21 DAT,[1]; [14],49%
same,Tolerance to icafolin,[1]; in vivo,unexpected tolerance
same,injury,[1]; in vivo,less than 30%
same,Percent Injury 14 DAT,[2]; [16],15.6%
same,Percent injury 21 DAT,[2]; [16],13.3%
same,Percent Injury 14 DAT,[2]; [17],67.2%
same,Percent injury 21 DAT,[2]; [17],56.7%
same,Percent Injury 14 DAT,[2]; [18],28.0%
same,Percent injury 21 DAT,[2]; [18],13.0%
same,Percent Injury 14 DAT,[2]; [19],68.0%
same,Percent injury 21 DAT,[2]; [19],74.0%
same,Percent Plant Injury (21 DAT),[3]; 5 g ai/ha icafolin,18.9%
same,Percent Plant Injury (21 DAT),[3]; 25 g ai/ha icafolin,62.8%
